Test results published in patent US20130217132A1, “METHODS, COMPOSITIONS AND USE FOR ENHANCING CHEMICAL TOLERANCE BY MICROORGANISMS” (priority 2009, published 2013).
In brackets after ≈: the same amount, converted by molar mass. Like-named read-outs stand apart in the source and are kept apart here.

Key:
[1] = system: aldehyde dehydrogenase (A1DH; EC 1.2.1.5); conditions: 0.12 g/L furfural; cited from earlier work
pBTL-1 lpcA culture = format: cell-based, E. coli; conditions: aerobic growth in 1 g/L furfural
Method: (§1) Certain experiments described herein were performed in E. coli BW25113 recA-, with the kanamycin resistance gene removed.
(§2) Cultures were grown in 10 ml MOPS minimal media, 100 μg carbenicillin/ml, and either 1 g furfural/1 supplemented, 2 g HMF/1, or 4 g acetate/1, in 15 ml conical tubes at 37° C. The optical density of 1 ml culture was measured with a spectrophotometer at 600 nm. A natural log transformation of the data was then calculated and then a regression line was fit to the data to calculate specific growth, which is […] to the culture doubling time. The blank vector, pBTL-1, served as the control. The lpcA gene was cloned into the pBTL-1 using standard cloning techniques and primers designed to amplify the gene from template DNA.

[2] = system: BW25113 araC::FRT-kan clone (JW0063); experiment: Cell growth (OD600) in MOPS minimal media with furfural, araC knockout; format: cell-based, E. coli; conditions: furfural 1 g/L
Method: In other exemplary methods, tolerance and expression of LPS was restored in a microorganism. FIG. 19 represents an example of restoration of tolerance and LPS expression in BW25113 ArecA clone. The indicated cells were grown in MOPS minimal media supplemented with glucose as a carbon source. Furfural was added to the media at the concentration of 1 g/L. Arabinose was added at 10 mM where indicated to gauge effect of AraC binding. The BW25113 araC::FRT-kan clone corresponds to JW0063, a BW25113 araC knockout mutant ordered from the Keio Collection directly. pBTL-1 represented the blank vector, and pLPCA referred to lpcA gene overexpression. Consistent with the Examples above, overexpression of lpcA gene increased cell growth (OD600 of 0.1 vs. 0.05) in the presence of furfural. Addition of Arabinose to the lpcA gene overexpression cells could further enhance the effect (OD600 of 0.3). […] To analyze the LPS level in the cells indicated in FIG. 19, LPS are extracted from the cells grown to exponential phase. Loading of LPS for the protein gel is normalized to the cell number. The gel is stained to visualize LPS protein bands after desired separation is obtained.
BW25113, MG1655, and derivatives were used where indicated. JW0063, an araC mutant of BW25113 was obtained from the Coli Genetic Stock Center (Yale). Overnight bacterial cultures were grown in Luria-Bertani medium with shaking. […]

[3] = system: BW25113 ArecA transformed with the blank vector (pBTL-1); experiment: MIC assay of furfural, blank vector strain; format: cell-based, E. coli; conditions: for MIC of furfural: blank vector, FIG. 18B
Method: In one exemplary method, assays were performed to determine minimum inhibitory concentration (MIC) of ethanol, furfural and acetate for BW25113 and MG1655 E. coli strains. […] Cells from each strain were inoculated from the same optical density into a total of 100 μL of varying furfural concentrations in a minimal media, for example using MOPS. Cell growth in the first 24 hr or 48 hr in the presence of furfural was monitored. The left bar in each pair for each indicated strain represents a first concentration of furfural that inhibited bacterial growth after 24 hr. The right bar for each strain represents the first concentration that inhibited growth after 48 hr. The MIC reads were the average of triplicates (n=3), and error bars represent standard deviation. […] ArecA signifies strains where the gene has been knocked out as previously described.
The minimum inhibitory concentration (MIC) of furfural of MG1655 and BW25113 with or without lpcA overexpression was determined. MIC assays were performed as described in Example 13. […] MIC reads were average of triplicates (n=3), and error bars represent standard deviation. The SDS-PAGE gel image in FIG. 17C represents LPS level of the cells indicated above the gel image (duplicate of each cell sample was presented). LPS was extracted from the indicated cells grown to exponential phase. Loading of LPS the SDS-PAGE gel was normalized to the cell number. The gel was stained for visualization after desired separation of LPS was obtained.
In another exemplary method, MIC was determined when MG1655 and BW25113 strains were fed with various carbon sources. MIC assays were performed in the presence of furfural. Glucose, Xylose or Ribose was supplemented with a minimal media for cell growth. […] MICs were read at the indicated time (24 hr or 48 hr), the average of triplicates was presented and error bars represent standard deviation. ‘Blank vector’ refers to the pBTL-1 vector, which served as the control. […]

[4] = system: pyruvate dehydrogenase (PDH) complex; conditions: 0.12 g/L furfural; cited from earlier work
BW25113 E. coli strain = experiment: Minimum inhibitory concentration (MIC) assay of furfural in MOPS minimal media; format: cell-based; conditions: Escherichia coli, n=3, read-out: MIC (first concentration of furfural that inhibited bacterial growth)
Method: In one exemplary method, assays were performed to determine minimum inhibitory concentration (MIC) of ethanol, furfural and acetate for BW25113 and MG1655 E. coli strains. FIG. 16 represents a histogram plot of illustrating tolerance differences of furfural in BW25113 and MG1655 E. coli strains. Cells from each strain were inoculated from the same optical density into a total of 100 μL of varying furfural concentrations in a minimal media, for example using MOPS. Cell growth in the first 24 hr or 48 hr in the presence of furfural was monitored. The left bar in each pair for each indicated strain represents a first concentration of furfural that inhibited bacterial growth after 24 hr. The right bar for each strain represents the first concentration that inhibited growth after 48 hr. The MIC reads were the average of triplicates (n=3), and error bars represent standard deviation. […] Thus, this difference in strains led to further investigation into the difference between these strains. ArecA signifies strains where the gene has been knocked out as previously described.

ADH = conditions: 0.12 g/L furfural; cited from earlier work
[5] = system: pBTL-1 Control (blank vector) culture; experiment: Aerobic growth (specific growth, final OD600) in MOPS minimal media with inhibitor, control; format: cell-based, E. coli; conditions: aerobic growth in 1 g/L furfural
Method: as §1, §2

O=Cc1ccco1 [furfural, furan-2-carbaldehyde]
activity reduction [1]: more than 80% | Final OD600 (24 hr) (pBTL-1 lpcA culture): 0.918 | Specific Growth (pBTL-1 lpcA culture; n=3): 0.153 h⁻¹ | OD600 (cell growth in the presence of furfural) ([2]; araC::FRT-kan without lpcA overexpression, no Arabinose): 0.5 | OD600 (cell growth in the presence of furfural) ([2]; araC::FRT-kan, Arabinose 10 mM): 1.0 | MIC ([3]; Escherichia coli, BW25113, read-out: MIC of furfural): 500 µg/mL | MIC of furfural ([3]; glucose as carbon source): 500 µg/mL | MIC of furfural ([3]; xylose as carbon source): 500 µg/mL | activity reduction [4]: more than 80% | MIC (BW25113 E. coli strain; BW25113, after 24 hr): 500 µg/mL (≈ 5.2 mM) | MIC (BW25113 E. coli strain; BW25113, after 48 hr): 1200 µg/mL (≈ 12.5 mM) | activity inhibited (ADH): 60% | Final OD600 (24 hr) [5]: 0.586 | Specific Growth ([5]; n=3): 0.111 h⁻¹
